This is an account of results in publication PMC9322950 (Pharmaceutics, 2022).

The conditions of data set [1]: co-administration of PPIs in fasting conditions, healthy volunteers; cited from earlier work.
The nature of a further data set: clinical. Conditions: human, in vivo. As to the method: All included patients were ≥ 18 years old, diagnosed with an advanced stage breast cancer, and provided written informed consent. Blood samples taken at routinely scheduled visits plus extensive collection over a 10-12 h dosing interval were gathered during the study. Collected samples were centrifuged, and plasma was stored at -80 °C allowing its conservation until drug level measurements. […] Moreover, information was reconciled with data collected in the randomized controlled medication adherence study in a subset of patients. […] The chromatographic separation was performed on a column XSelect HSS T3 2.1 × 75 mm, 3.5 μm (Waters®, Milford, MA, USA) using a mobile phase composed of a gradient of ammonium acetate 2 mM (+0.1 formic acid) and acetonitrile (+0.1 formic acid). […] The method was validated over the clinically relevant concentration range, i.e., from 0.5 to 500 ng/mL. […] One- and two-compartment models with first- or zero-order absorption, potentially including an absorption lag time were tested. Inter-individual variability was modeled exponentially and tested sequentially on all parameters. Additive, proportional, and mixed models for residual error were compared. Potential associations between post hoc individual parameter estimates and demographic or clinical characteristics were first visually explored and then tested in the model. […] The characteristics available for testing their effect on PD parameters were as follows: age, body weight, ALK, BILT, gamma-glutamyltransferase (GGT), albumin, AST, ALT, eGFR, association with fulvestrant, chemotherapy in the previous treatment line, and POCT measurement. […] Baseline values of continuous covariates were tested on the base ANC parameter while time-varying values were tested on Emax. Continuous covariates were centered and normalized on their median value and tested by linear or allometric functions as appropriate. Missing data were imputed to the population median value. Categorical covariates were coded as 0 or 1, and missing data were first treated as an additional category and then regrouped according to their parameter estimates. The first-order conditional estimation method with interaction (FOCEI) was used for model fitting with the ADVAN4 TRANS4 subroutine for the PK model and the ADVAN6 subroutine defining a system of ordinary differential equations for the PK/PD model. Models were selected based on the improvement in standard goodness-of-fit plots, precision of parameter estimates and eta shrinkage. […] The covariate analysis was performed by forward inclusion (significant level for ΔOFV ≤ -3.84, p ≤ 0.05) followed by backward deletion (significant level for ΔOFV ≥ 7.88, p ≤ 0.005). The final PK/PD model was evaluated with a non-parametric bootstrap using 502 replicates of the initial dataset. The generated median parameters and their CI95% were compared to the final model estimates. In addition, prediction-corrected visual predictive checks (pc-VPCs) were performed to diagnose potential model misspecification by visually comparing observed concentrations with prediction percentiles.

The conditions of data set [2]: based on PK/PD modeling; cited from earlier work.
Data set [3] deals with absolute neutrophil count (ANC). As to conditions: cited from earlier work.
For data set [4] the test system is unchanged. The data set can be described thus: Semi-mechanistic PK/PD neutropenia model (exposure–toxicity relationship, ANC time course). It counts as in vivo, human. Conditions: for Emax (maximum estimated drug effect on kprol) / ωEC50 (between-subject variability) / ωEmax (between-subject variability): final PK/PD model. As to the method:
ANC was directly retrieved from the patients' medical records up to the date of the last PK observation. The most recent ANC value in the three months before palbociclib initiation was retained as the base value. Blood sampling for ANC measurement was performed either concomitantly or separately from that for palbociclib quantification. The proliferation, maturation, and homeostatic regulation of neutrophils were mimicked by a series of 5 compartments, as described in the model developed by Friberg et al.. This structural model was directly applied to our data. The first compartment represented stem cells and proliferating precursor cells in the bone marrow with the systematic renewal of proliferative cells' production modeled by the rate constant kprol. This compartment was followed by three transit compartments to account for the delay between proliferation and maturation according to the first-order rate constant ktr, defined as n+1/MTT , where MTT is the mean transit time of neutrophils. The last compartment characterized the blood circulation with the neutrophil elimination rate constant kcirc. The rate constants kprol, ktr, and […] assumed to be equal, as in the original model. […] ANCs were log-transformed before the analysis, and an additive error on the log scale was used to describe residual variability. Owing to long computation runtime, neutropenia model development was first performed by fixing the PK parameters that were estimated together with PD parameters in the final model. Potential associations between post hoc individual parameter estimates and demographic or clinical characteristics were first visually explored and then tested in the model. […] The characteristics available for testing their effect on PD parameters were as follows: age, body weight, ALK, BILT, gamma-glutamyltransferase (GGT), albumin, AST, ALT, eGFR, association with fulvestrant, chemotherapy in the previous treatment line, and POCT measurement. […] Despite high inter-individual variability on EC50, covariates were not tested on this parameter and were substituted by covariates on Emax as recommended in good practices for exposure-response analyses. Baseline values of continuous covariates were tested on the base ANC parameter while time-varying values were tested on Emax. Continuous covariates were centered and normalized on their median value and tested by linear or allometric functions as appropriate. Missing data were imputed to the population median value. Categorical covariates were coded as 0 or 1, and missing data were first treated as an additional category and then regrouped according to their parameter estimates. The first-order conditional estimation method with interaction (FOCEI) was used for model fitting with the ADVAN4 TRANS4 subroutine for the PK model and the ADVAN6 subroutine defining a system of ordinary differential equations for the PK/PD model. Models were selected based on the improvement in standard goodness-of-fit plots, precision of parameter estimates and eta shrinkage. […] The covariate analysis was performed by forward inclusion (significant level for ΔOFV ≤ -3.84, p ≤ 0.05) followed by backward deletion (significant level for ΔOFV ≥ 7.88, p ≤ 0.005). The final PK/PD model was evaluated with a non-parametric bootstrap using 502 replicates of the initial dataset. The generated median parameters and their CI95% were compared to the final model estimates. In addition, prediction-corrected visual predictive checks (pc-VPCs) were performed to diagnose potential model misspecification by visually comparing observed concentrations with prediction percentiles.

The test system is the same in data set [5]. As to conditions: final PK/PD model, FIX at literature value; cited from earlier work.
Data set [6] can be described thus: Exposure–response relationship: Cox proportional hazards models on progression-free survival. In kind it is in vivo, human. Conditions: human, plasma, oral; model-predicted, including OFF-treatment periods; read-out: median AUCcum90 (mean cumulative AUC0-24 over 90 days). From the text: (§1) To consider the time lapse between radiologic exams (i.e., every 3 months), mean cumulative AUC0-24 over 90 days (AUCcum90) was then predicted. This variable was selected as the exposure metric to be tested as a time-dependent covariate for its influence on PFS. In consideration of the limited number of patients progressing (n = 29), we only included age at treatment initiation as an additional covariate, with an interaction term between age and exposure. Cox proportional hazards models were estimated in R (2021) to evaluate the effect of these covariates on PFS (significance level: p ≤ 0.05).

Another data set has as its system metastatic breast cancer. The data set is described as above. In kind it is in vivo, human. As to conditions: 29 of 44 patients progressed.
Description: as §1

Setting [7] is: bootstrap median (n = 502 samples).

Values after ≈ are worked out from the molar mass of the structure shown.

With `CC(=O)c1c(C)c2cnc(Nc3ccc(N4CCNCC4)cn3)nc2n(C2CCCC2)c1=O` [palbociclib, Palbociclib], in data set [1], the “decrease in AUC” value is listed as 62%. Moreover, in the data set “clinical”, the “ALAG (absorption lag time)” value is given as 2.0 h, the “ALAG (absorption lag-time)” value stood at 1.9 h, the “CL (clearance)” value turned out to be 68 L/h and the “CLIPP,no food (clearance with concomitant coadministration of IPP under fasting conditions)” value was 106 L/h. Moreover, in “clinical”, the “Vc (central volume of distribution)” value is 2730 L and the “Vc/F (apparent central volume of distribution)” value is 2778 L. In the data set “clinical” (CL (clearance)), this compound showed a clearance of 1130 mL/min. Moreover, the clearance in “clinical” (CLIPP,no food (clearance with concomitant coadministration of IPP under fasting conditions)) was 1770 mL/min. Moreover, the Vd in “clinical” (Vc (central volume of distribution)) amounted to 2700 L. In addition, the Vd/F in the data set “clinical” (Vc/F (apparent central volume of distribution)) came to 2800 L. Besides, the “upper limit for trough concentration to avoid severe neutropenia” value in data set [2] is listed as 100 ng/mL. Also, in data set [3], the EC50 literature value was 0.0401 µg/mL (≈ 0.0896 µM). Besides, the EC50 in data set [4] (Homo sapiens, Neutrophil, base model, attributed to data sparseness, not retained, read-out: estimated EC50 (Emax model, before fixing)) was 0.0088 µg/mL (≈ 0.0197 µM). Further, in data set [4] (setting [7]), the “Emax (maximum estimated drug effect on kprol)” value is given as 0.22, the “ωEC50 (between-subject variability)” value was determined as 91 CV% and the “ωEmax (between-subject variability)” value was determined as 16 CV%. Besides, in data set [4] (estimate), the “Emax (maximum estimated drug effect on kprol)” value was 0.22, the “ωEC50 (between-subject variability)” value is reported as 93 CV% and the “ωEmax (between-subject variability)” value is on record as 15 CV%. Further, the “EC50 (palbociclib concentration corresponding to 50% of the maximum effect)” value in data set [5] is 0.0401 µg/mL. Also, the mean cumulative AUC0-24 over 90 days (AUCcum90) in data set [6] was 1140 ng·h/mL. The “median PFS” value with metastatic breast cancer was 17 months.

By clearance is commonly meant the volume of plasma or blood freed of the substance per unit of time. The Vd is the apparent volume that relates the amount in the body to the concentration in plasma or blood. Higher therefore signals wide distribution into tissue. For orientation: Vd/F means the volume of distribution divided by bioavailability. The term EC50 denotes the concentration that produces a half-maximal response.
